Test systems include SF-295 CNS; SNB-75 CNS; 786-0 renal; KM12 colon; HOP-62 NSCLC; MDA-MB-435; MCF7 breast; NCI-H23 lung; ACHN renal.
Experiment in all cases: NCI tumour cell line growth inhibition, 48 h

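Where inhibition never reached the appropriate level, the endpoint shown equals the highest concentration tested. Otherwise, values were interpolated linearly from a five-concentration, 48-hour dose response in 96-well plates. The concentration for 50% growth inhibition is given as GI50. At the TGI there is no net growth.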

This note sets out measurements from PubChem BioAssay (NCI).

As to `CC(C)(C)NCC(O)c1ccccc1Cl` (configuration not stated), the GI50 in the test with SF-295 CNS, in the test with SNB-75 CNS, with 786-0 renal, in the test with KM12 colon, in the test with HOP-62 NSCLC and with MDA-MB-435 was above 100 µM throughout. For the same compound, the GI50 in the test with MCF7 breast, in the test with NCI-H23 lung and with ACHN renal was above 100 µM throughout. The TGI with SF-295 CNS, with SNB-75 CNS, with 786-0 renal, in the test with KM12 colon, in the test on HOP-62 NSCLC and with MDA-MB-435 was above 100 µM in each case. Besides, the TGI in the test with MCF7 breast, in the test on NCI-H23 lung and with ACHN renal was above 100 µM in each case.
With `CC1C(c2ccccc2)N(C)C(c2ccccc2)C(C)C1(O)c1ccccc1` (configuration not stated), the TGI in the test on SF-295 CNS, with SNB-75 CNS, in the test on 786-0 renal, in the test with KM12 colon, in the test on HOP-62 NSCLC and in the test with NCI-H23 lung was above 100 µM each time. Further, the TGI in the test on ACHN renal was above 100 µM.
For `CC(=O)C1=C(C)N(Cc2ccccc2)C2(O)C=CC(=O)C3=C(O)c4ccccc4C(=O)C312` (configuration not stated), the GI50 in the test on SF-295 CNS is 12.5 µM; in the test on SNB-75 CNS, 4.88 µM; in the test with 786-0 renal it was 2.26 µM; in the test with KM12 colon, 9.05 µM; in the test on HOP-62 NSCLC it was 13.5 µM; with MDA-MB-435, 2.26 µM. Besides, the GI50 in the test with MCF7 breast was 3.8 µM; in the test with NCI-H23 lung, 7.53 µM. Moreover, the TGI amounted to 27.9 µM with SF-295 CNS; 25 µM with SNB-75 CNS; 4.26 µM with 786-0 renal; 26 µM with KM12 colon; 34.3 µM with HOP-62 NSCLC; 4.14 µM in the test with MDA-MB-435. Also, the values for the TGI with MCF7 breast and with NCI-H23 lung were 26.2 µM and 24.7 µM, respectively.
Regarding `OC1OCC(COc2cc(Cl)c(Cl)cc2Cl)OC1O` (configuration not stated), the TGI in the test on SF-295 CNS, in the test with SNB-75 CNS, with 786-0 renal, in the test on KM12 colon, in the test with HOP-62 NSCLC and in the test on NCI-H23 lung was above 100 µM in each case. The TGI in the test with ACHN renal was above 100 µM.
Take `CC1(c2ccc(F)cc2)C2C(=O)NC(=O)C1C(=O)NC2=O` (configuration not stated): the TGI in the test with SF-295 CNS, in the test with SNB-75 CNS, in the test with 786-0 renal, in the test on KM12 colon, with NCI-H23 lung and in the test on ACHN renal was above 100 µM throughout.
Take `COc1nn(C)cc1Nc1nccc(-c2c[nH]c3c(NC(=O)[C@@H](C)N4CCN(C)CC4)cccc23)n1`: the GI50 with SF-295 CNS is 28 µM; in the test with SNB-75 CNS, 16.2 µM; with 786-0 renal it was 28.8 µM; in the test with KM12 colon it was 37.6 µM; with HOP-62 NSCLC, 23.1 µM; in the test on MDA-MB-435, 24.3 µM. In addition, the GI50 in the test on MCF7 breast is 31.7 µM; in the test with NCI-H23 lung, 40.5 µM; in the test on ACHN renal it was 37.6 µM. For the same compound, the TGI is 99.4 µM with SF-295 CNS; 40.9 µM in the test on SNB-75 CNS; above 100 µM with 786-0 renal; above 100 µM with KM12 colon; above 100 µM with HOP-62 NSCLC; 82.3 µM in the test on MDA-MB-435. Moreover, the TGI with MCF7 breast, with NCI-H23 lung and with ACHN renal was above 100 µM throughout.
For the compound `CCN1CCN(C(=O)[C@]23CC[C@@H](C)[C@H](C)[C@@H]2C2=CC[C@@H]4[C@@]5(C)CCC(=O)C(C)(C)[C@@H]5CC[C@@]4(C)[C@]2(C)CC3)CC1`, the GI50 is 0.82 µM in the test with SF-295 CNS; 1.03 µM in the test with SNB-75 CNS; 0.814 µM in the test with 786-0 renal; 1.03 µM in the test on KM12 colon; 1.38 µM in the test with HOP-62 NSCLC; 1.05 µM in the test with MDA-MB-435. The GI50 in the test on MCF7 breast is 0.891 µM; in the test with NCI-H23 lung, 1.08 µM; with ACHN renal, 1.33 µM. Further, the TGI in the test on SF-295 CNS amounted to 1.59 µM; in the test on SNB-75 CNS, 3.82 µM; in the test on 786-0 renal, 1.7 µM; in the test on KM12 colon, 2.22 µM; with HOP-62 NSCLC, 3.09 µM; in the test on MDA-MB-435, 2.3 µM. For the same compound, the TGI with MCF7 breast was determined as 2.03 µM; in the test on NCI-H23 lung, 2.9 µM; in the test with ACHN renal, 4.38 µM.
In the case of `CCO/C=C\C12CCCC1NC(c1ccccc1)(c1ccccc1)O2` (configuration not stated), the TGI in the test with SF-295 CNS was above 100 µM; in the test with SNB-75 CNS, 78.5 µM; in the test on 786-0 renal, above 100 µM; with KM12 colon, above 100 µM; with HOP-62 NSCLC, above 100 µM; with NCI-H23 lung, 80.2 µM. In the test with ACHN renal, this compound displayed a TGI of 92.5 µM.
As for `CCCCCCCCCCCCCCNCC(OC)OC`, the TGI came to 34.1 µM with SF-295 CNS; 26.9 µM in the test with SNB-75 CNS; 31 µM in the test on 786-0 renal; 26.7 µM in the test with KM12 colon; 31.8 µM in the test on HOP-62 NSCLC; 36.8 µM in the test on NCI-H23 lung. Moreover, the TGI with ACHN renal is 31.1 µM.
As to `CC(=O)C(CN1C(=O)c2ccccc2C1=O)C(C)=O`, the TGI in the test with SF-295 CNS, in the test with SNB-75 CNS, in the test with 786-0 renal, in the test with HOP-62 NSCLC, in the test on MDA-MB-435 and in the test with MCF7 breast was above 100 µM each time. In addition, the TGI in the test with NCI-H23 lung and with ACHN renal was above 100 µM in each case.
